Measurements from patent publication US9617256B2 (priority 2007, dated 2017).
Converted amounts (≈) assume the structure as drawn.

Columns and labels:
[1] = system: AECO063 (ATCC25922 bearing an acrAB mutation); assay: microbe, parasite or virus in culture; assay type: cell-based, E. coli; settings: Escherichia coli, ATCC25922, read-out: MIC AECO063
In short: (§1)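 Incubation: 35° C., ambient air, 18-24 h. Medium: cation-adjusted Mueller-Hinton broth with 2-fold serial dilutions of drug. Inoculum: 3×10^5–7×10^5 CFU/mL final, per CLSI microdilution method.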

[2] = system: AABA1060 (clinical isolate of Acinetobacter baumannii); assay: MIC broth microdilution, AABA1060; assay type: cell-based; settings: Acinetobacter baumannii, read-out: MIC AABA1060
In short: as §1

[3] = system: APAE006 in the presence of 8 micrograms per milliliter of polymyxin B nonapeptide; assay type: cell-based, P. aeruginosa; settings: in the presence of 8 micrograms per milliliter of polymyxin B nonapeptide
In short: (§2)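 CLSI broth microdilution in cation-adjusted Mueller-Hinton broth, final inoculum 3×10^5–7×10^5 CFU/mL, 2-fold drug dilutions, 18-24 hours at 35° C. in ambient air. APAE006 is an efflux-pump-inactivated P. aeruginosa strain. Assay performance monitored with QC strains and levofloxacin.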

APAE001 (ATCC27853) = assay: MIC broth microdilution, APAE001; assay type: cell-based, P. aeruginosa; settings: Pseudomonas aeruginosa, ATCC27853, read-out: MIC APAE001, APAE001 is ATCC27853
In short: as §1

AECO001 (ATCC25922) = assay: MIC broth microdilution, AECO001; assay type: cell-based, E. coli; settings: Escherichia coli, ATCC25922, read-out: MIC AECO001
In short: as §1

AECO001 HSA AGP = assay: MIC broth microdilution, AECO001 HSA AGP; assay type: cell-based, E. coli; settings: Escherichia coli
Method: Bacterial isolates were cultivated from −70° C. frozen stocks by overnight passages at 35° C. in ambient air on Mueller-Hinton agar (Beckton Dickinson, Franklin Lakes, N.J.). Clinical isolates tested were obtained from various geographically diverse hospitals in the US and abroad (Focus Diagnostics, Herndon, Va. and JMI, North Liberty, Iowa). Quality control strains were from the American Type Culture Collection (ATCC; Rockville, Md.). Additional primary panel strains were generated using standard molecular biology techniques.
Minimum Inhibitory Concentrations (MICs) were determined by the broth microdilution method in accordance with the Clinical and Laboratory Standards Institute (CLSI) guidelines. In brief, organism suspensions were adjusted to a 0.5 McFarland standard to yield a final inoculum between 3×10^5 and 7×10^5 colony-forming units (CFU)/mL. Drug dilutions and inocula were made in sterile, cation adjusted Mueller-Hinton Broth (Beckton Dickinson). An inoculum volume of 100 μL was added to wells containing 100 μL of broth with 2-fold serial dilutions of drug. All inoculated microdilution trays were incubated in ambient air at 35° C. for 18-24 hours. […] Performance of the assay was monitored by the use of laboratory quality-control strains and levofloxacin, a compound with a defined MIC spectrum, in accordance with CLSI guidelines.
*AECO001 is ATCC25922, AECO063 is ATCC25922 bearing an acrAB mutation, APAE001 is ATCC27853, APAE006 is a strain of P. aeruginosa in which all efflux pumps are inactivated, APAE006+PMBN indicates MICs with the indicated strain in the presence of 8 micrograms per milliliter of polymyxin B nonapeptide, AABA1060 is a clinical isolate of Acinetobacter baumannii, ASAU001 is a laboratory strain of S. aureus (ATCC29213).

[4] = system: ASAU001 (laboratory strain of S. aureus, ATCC29213); assay: MIC broth microdilution, ASAU001; assay type: cell-based; settings: Staphylococcus aureus, ATCC29213, read-out: MIC ASAU001
In short: as §1

[5] = system: APAE006 (strain of P. aeruginosa in which all efflux pumps are inactivated); assay: microbe, parasite or virus in culture; assay type: cell-based; settings: Pseudomonas aeruginosa, read-out: MIC APAE006, P. aeruginosa, all efflux pumps inactivated
In short: as §2

| SMILES | MIC [1] [µg/mL] | MIC [2] [µg/mL] | MIC APAE006 + PMBN [3] | MIC (APAE001 (ATCC27853)) [µg/mL] | MIC (AECO001 (ATCC25922)) [µg/mL] | MIC (AECO001 HSA AGP) [µg/mL] | MIC [4] [µg/mL] | MIC [5] [µg/mL] |
| --- | --- | --- | --- | --- | --- | --- | --- | --- |
| CC(C)(O)[C@H](NC(=O)c1ccc(C#C/C=C/c2ccc(CN3CCOCC3)cc2)cc1)C(=O)NO [Compound 97-2] | < 2 | < 2 | A (MIC's of 2.0 μg/mL or less = A) | < 2 | < 2 | < 2 | 16 to 64 (≈ 33.5 to 134 µM) | < 2 |
| C[C@@H](O)[C@H](NC(=O)c1ccc(/C=C/C#Cc2ccc(CN3CCOCC3)cc2)cc1)C(=O)NO [Example 30-12a] | < 2 | 2 to 16 (≈ 4.31 to 34.5 µM) | A (MIC's of 2.0 μg/mL or less = A) | < 2 | < 2 | < 2 | > 64 | < 2 |
| C[C@@H](O)[C@H](NC(=O)c1ccc(/C=C\C#Cc2ccc(CN3CCOCC3)cc2)cc1)C(=O)NO [Example 30-12b] | < 2 | 16 to 64 (≈ 34.5 to 138 µM) | A (MIC's of 2.0 μg/mL or less = A) | 2 to 16 (≈ 4.31 to 34.5 µM) | 2 to 16 (≈ 4.31 to 34.5 µM) | 16 to 64 (≈ 34.5 to 138 µM) | > 64 | < 2 |
| C[C@@H](O)[C@H](NC(=O)c1ccc(C2CCN(c3ccc(CN4CCOCC4)cc3)CC2)cc1)C(=O)NO [Example 41-5, N-((1S,2R)-2-Hydroxy-1-hydroxycarbamoyl-propyl)-4-[1-(4-morpholin-4-ylmethyl-phenyl)-piperidin-4-yl]-benzamide] | 16 to 64 (≈ 32.2 to 129 µM) | > 64 | A (MIC's of 2.0 μg/mL or less = A) | 16 to 64 (≈ 32.2 to 129 µM) | > 64 | > 64 | > 64 | < 2 |
| C[C@@H](O)[C@H](NC(=O)c1ccc(N2CCC(c3ccc(CN4CCOCC4)cc3)CC2)cc1)C(=O)NO [Example 42-7, N-((1S,2R)-2-Hydroxy-1-hydroxycarbamoyl-propyl)-4-[4-(4-morpholin-4-ylmethyl-phenyl)-piperidin-1-yl]-benzamide] | 16 to 64 (≈ 32.2 to 129 µM) | 16 to 64 (≈ 32.2 to 129 µM) | A (MIC's of 2.0 μg/mL or less = A) | 16 to 64 (≈ 32.2 to 129 µM) | 16 to 64 (≈ 32.2 to 129 µM) | 16 to 64 (≈ 32.2 to 129 µM) | > 64 | < 2 |
| C[C@@H](O)[C@H](NC(=O)c1ccc(N2CCN(c3ccc(CN4CCOCC4)cc3)CC2)cc1)C(=O)NO [Example 43-7, N-((1S,2R)-2-Hydroxy-1-hydroxycarbamoyl-propyl)-4-[4-(4-morpholin-4-ylmethyl-phenyl)-piperazin-1-yl]-benzamide] | 16 to 64 (≈ 32.2 to 129 µM) | > 64 | A (MIC's of 2.0 μg/mL or less = A) | 16 to 64 (≈ 32.2 to 129 µM) | > 64 | > 64 | > 64 | < 2 |
| CC(C)C(C(=O)NO)C(=O)Nc1ccc(C#Cc2ccc(CN3CCOCC3)cc2)cc1 (stereo not drawn) [Example 60-5, N-Hydroxy-2-isopropyl-N′-[4-(4-morpholin-4-ylmethyl-phenylethynyl)-phenyl]-malonamide] | 16 to 64 (≈ 36.7 to 147 µM) | > 64 | B (MIC's of greater than 2.0 μg/mL to 16.0 μg/mL = B) | > 64 | 16 to 64 (≈ 36.7 to 147 µM) | > 64 | > 64 | 16 to 64 (≈ 36.7 to 147 µM) |
| O=C(NC(C(=O)NO)C1CCNC1)c1ccc(C#Cc2ccc(CN3CCOCC3)cc2)cc1 (stereo not drawn) [Example 64-7, N-(hydroxycarbamoyl-pyrrolidin-3-yl-methyl)-4-(4-morpholin-4-ylmethyl-phenylethynyl)-benzamide] | < 2 | 16 to 64 (≈ 34.6 to 138 µM) | A (MIC's of 2.0 μg/mL or less = A) | 2 to 16 (≈ 4.32 to 34.6 µM) | 2 to 16 (≈ 4.32 to 34.6 µM) | 16 to 64 (≈ 34.6 to 138 µM) | > 64 | < 2 |
| O=C(N[C@H](C(=O)NO)C1CCNCC1)c1ccc(C#Cc2ccc(CN3CCOCC3)cc2)cc1 [Example 65-6, N—((S)-hydroxycarbamoyl-piperidin-4-yl-methyl)-4-(4-morpholin-4-ylmethyl-phenylethynyl)-benzamide] | 2 to 16 (≈ 4.2 to 33.6 µM) | 16 to 64 (≈ 33.6 to 134 µM) | A (MIC's of 2.0 μg/mL or less = A) | 16 to 64 (≈ 33.6 to 134 µM) | 16 to 64 (≈ 33.6 to 134 µM) | > 64 | > 64 | 2 to 16 (≈ 4.2 to 33.6 µM) |
| O=C(N[C@H](C(=O)NO)c1ccccc1)c1ccc(C#Cc2ccc(CN3CCOCC3)cc2)cc1 [Example 66-5, N—((S)-hydroxycarbamoyl-phenyl-methyl)-4-(4-morpholin-4-ylmethyl-phenylethynyl)-benzamide] | < 2 | 2 to 16 (≈ 4.26 to 34.1 µM) | A (MIC's of 2.0 μg/mL or less = A) | 2 to 16 (≈ 4.26 to 34.1 µM) | < 2 | 2 to 16 (≈ 4.26 to 34.1 µM) | > 64 | < 2 |
| O=C(N[C@H](C(=O)NO)C1CCCC1)c1ccc(C#Cc2ccc(CN3CCOCC3)cc2)cc1 [Example 66-6] | < 2 | 16 to 64 (≈ 34.7 to 139 µM) | A (MIC's of 2.0 μg/mL or less = A) | 16 to 64 (≈ 34.7 to 139 µM) | < 2 | 2 to 16 (≈ 4.33 to 34.7 µM) | > 64 | < 2 |
| O=C(NC(C(=O)NO)C1CCOCC1)c1ccc(C#Cc2ccc(CN3CCOCC3)cc2)cc1 (stereo not drawn) [Example 67-5, N-[hydroxycarbamoyl-(tetrahydro-pyran-4-yl)-methyl]-4-(4-morpholin-4-ylmethyl-phenylethynyl)-benzamide] | < 2 | 16 to 64 (≈ 33.5 to 134 µM) | A (MIC's of 2.0 μg/mL or less = A) | 2 to 16 (≈ 4.19 to 33.5 µM) | < 2 | 2 to 16 (≈ 4.19 to 33.5 µM) | > 64 | < 2 |
| O=C(N[C@H](C(=O)NO)c1cccs1)c1ccc(C#Cc2ccc(CN3CCOCC3)cc2)cc1 [Example 67-7] | < 2 | 2 to 16 (≈ 4.21 to 33.6 µM) | A (MIC's of 2.0 μg/mL or less = A) | 2 to 16 (≈ 4.21 to 33.6 µM) | < 2 | 2 to 16 (≈ 4.21 to 33.6 µM) | > 64 | < 2 |
| O=C(N[C@H](C(=O)NO)c1ccsc1)c1ccc(C#Cc2ccc(CN3CCOCC3)cc2)cc1 [Example 67-8] | < 2 | 2 to 16 (≈ 4.21 to 33.6 µM) | A (MIC's of 2.0 μg/mL or less = A) | 2 to 16 (≈ 4.21 to 33.6 µM) | < 2 | 2 to 16 (≈ 4.21 to 33.6 µM) | > 64 | < 2 |
| O=C(N[C@H](C(=O)NO)C1CCS(=O)(=O)CC1)c1ccc(C#Cc2ccc(CN3CCOCC3)cc2)cc1 [Example 67-9] | < 2 | > 64 | A (MIC's of 2.0 μg/mL or less = A) | 16 to 64 (≈ 30.4 to 122 µM) | 2 to 16 (≈ 3.8 to 30.4 µM) | 16 to 64 (≈ 30.4 to 122 µM) | > 64 | < 2 |
| O=C(N[C@H](C(=O)NO)C1CC1)c1ccc(C#Cc2ccc(CN3CCOCC3)cc2)cc1 [Example 68-6, N—((S)-cyclopropyl-hydroxycarbamoyl-methyl)-4-(4-morpholin-4-ylmethyl-phenylethynyl)-benzamide] | < 2 | 16 to 64 (≈ 36.9 to 148 µM) | A (MIC's of 2.0 μg/mL or less = A) | 2 to 16 (≈ 4.61 to 36.9 µM) | < 2 | 2 to 16 (≈ 4.61 to 36.9 µM) | > 64 | < 2 |
| NC[C@H](NC(=O)c1ccc(C#CC#Cc2ccc(CO)cc2)cc1)C(=O)NO [Example 82-2] | < 2 | 16 to 64 (≈ 42.4 to 170 µM) | A (MIC's of 2.0 μg/mL or less = A) | < 2 | < 2 | 16 to 64 (≈ 42.4 to 170 µM) | 16 to 64 (≈ 42.4 to 170 µM) | < 2 |
| C[C@@H](N)[C@H](NC(=O)c1ccc(C#CC#Cc2ccc(CO)cc2)cc1)C(=O)NO [Example 82-3] | < 2 | 2 to 16 (≈ 5.11 to 40.9 µM) | A (MIC's of 2.0 μg/mL or less = A) | < 2 | < 2 | 16 to 64 (≈ 40.9 to 164 µM) | 16 to 64 (≈ 40.9 to 164 µM) | < 2 |
